Measured values taken from PubChem BioAssay AID1996.
Values after ≈ are worked out from the molar mass of the structure shown.

Conditions: buffer; pH 7.4; 200.0 µM

SMILES | solubility kinetic [mg/mL]
O=C(CC(c1ccc(F)cc1)c1ccco1)Nc1nccs1 (centres undefined) | 0.0147 (≈ 46.5 µM)
COc1ccccc1CC(=O)NC1CCN(Cc2ccccc2)CC1 | > 0.0508
O=C(O)CNc1ccc(S(=O)(=O)C(F)(F)F)cc1[N+](=O)[O-] | 0.0447 (≈ 136 µM)
O=C(COC(=O)C12CC3CC(CC(C3)C1)C2)Nc1ccc2[nH]c(=O)[nH]c2c1 | 0.0013 (≈ 3.52 µM)
Cc1nc(C(=O)NCC(=O)c2ccc(Cl)cc2)c(C(F)(F)F)o1 | 0.0084 (≈ 24.2 µM)
CCc1ccc(NC(=O)Nc2cnccn2)cc1 | 0.0099 (≈ 40.9 µM)
C=CCN(C(=O)c1ccccc1)C1CCS(=O)(=O)C1 (centres undefined) | 0.0374 (≈ 134 µM)
Cc1ccc(CCN2CC(C(=O)NCCN(C)C)CC2=O)cc1 (centres undefined) | > 0.0476
CC1(C)CC(=O)C2=C(C1)NC(=O)NC2c1ccccc1 (centres undefined) | 0.0399 (≈ 148 µM)
COC(=O)c1ccc(NC(=O)c2ccc3nc(C)sc3c2)cc1 | < 0.0003
CCOC(=O)CSc1nc2cc(C(F)(F)F)cnc2n1C | 0.0449 (≈ 141 µM)
Cc1cnc(C(=O)OCC(=O)c2cccc3ccccc23)cn1 | 0.0361 (≈ 118 µM)
CCN(CC)c1ccc(/C=C2\SC(=O)N(C(C)C)C2=O)o1 | 0.0041 (≈ 13.3 µM)
CCOC(=O)c1sc2ncnc(Nc3cccc(C(=O)O)c3)c2c1C | > 0.0536
Cc1ccc(OCCSc2nc3ncnc(N)c3[nH]2)cc1 | 0.0038 (≈ 12.6 µM)
COn1c(-c2ccccc2)c(C=O)c2ccccc21 | 0.0024 (≈ 9.55 µM)
NS(=O)(=O)c1ccc(NC(=O)c2cccc(Cl)c2)cc1 | 0.01 (≈ 32.2 µM)
O=[N+]([O-])/C=C/c1ccc2c(ccn2Cc2ccccc2)c1 | 0.0006 (≈ 2.16 µM)
N#Cc1cccc(NC(=O)Cc2ccccc2)c1 | > 0.0354
O=C(NCC1CCCO1)c1cccc(NC(=O)c2ccccc2)c1 (centres undefined) | > 0.0487
COc1cc(OC)c(C(=O)NCc2cccnc2)cc1OC | 0.0429 (≈ 142 µM)
CO/N=C/C(c1ccc(Cl)nc1)S(=O)(=O)c1ccccc1 (centres undefined) | > 0.0487
Cc1cccc(OCCCn2c(=O)oc3ccc(C)cc32)c1 | 0.0033 (≈ 11.1 µM)
Cc1cccc(C)c1NC(=O)CCn1cnc2ccccc2c1=O | > 0.0482

SMILES | solubility kinetic [mg/mL]
COc1ccc2[nH]cc(CCNC(=O)Nc3ccccc3C)c2c1 | 0.0104 (≈ 32.2 µM)
Cc1ccc(NC(=O)CCCc2ccccc2)nc1 | 0.0366 (≈ 144 µM)
S=C(NCC1CCCO1)N1CCN(Cc2ccccc2Cl)CC1 (centres undefined) | > 0.0531
Cn1c(=O)[nH]c2nc[nH]c2c1=O | > 0.0249
CCOC(=O)c1c(C)[nH]c(C(=O)COc2ccc3ccc(=O)oc3c2)c1C | 0.0092 (≈ 24.9 µM)
CC(=O)c1ccc(NC(=O)[C@@H]2CCCN2C(=O)OC(C)(C)C)cc1 | > 0.0499
Cn1c(C(=O)Nc2ccc(Cl)cc2)cc2cc(Cl)ccc21 | < 0.0003
CCc1cc(SC#N)cc(C)c1N | 0.0256 (≈ 133 µM)
O=C(Nc1ccc(NC(=O)C2CC2)cc1)c1cccs1 | 0.0033 (≈ 11.5 µM)
O=C(Nc1cccc2ncccc12)c1cc([N+](=O)[O-])ccc1Cl | 0.0032 (≈ 9.76 µM)
COc1ccc(NC(=O)CN2CCCCCC2)cc1OC | 0.0322 (≈ 110 µM)
O=C(NCc1ccccc1F)C(c1ccccc1)c1ccccc1 | 0.0009 (≈ 2.82 µM)
O=C(Cc1ccc(Cl)c(Cl)c1)NC1CCCCCC1 | 0.0032 (≈ 10.7 µM)
O=C1C2C3C=CC(CC3)C2C(=O)N1c1ccc([N+](=O)[O-])cc1 (centres undefined) | 0.0034 (≈ 11.4 µM)
COc1ccc2cc3c(nc2c1)OCC3 | 0.0252 (≈ 125 µM)
CCOc1ccc2[nH]c3c(N4CCc5ccccc5C4)ncnc3c2c1 | 0.0012 (≈ 3.48 µM)
Cc1cccc(COc2ccc(/C=C3/C(=O)N(C)C(=S)N3C)cc2)c1 | 0.0054 (≈ 15.3 µM)
Cc1cc(NS(=O)(=O)c2ccc(NC(=O)COc3ccc(C#N)cc3)cc2)nc(C)n1 | > 0.0656
NS(=O)(=O)c1ccc(NC(=O)CSc2ncccn2)cc1 | > 0.0487
COc1ccc(CCNC(=O)CNC(=O)c2ccco2)cc1 | > 0.0453
CCN(CC)S(=O)(=O)c1ccc(Cl)nc1 | 0.0343 (≈ 138 µM)
CCOC(=O)C1=C(N)OC2=C(C(=O)CCC2)C12C(=O)N(C)c1ccccc12 (centres undefined) | 0.0291 (≈ 79 µM)
COc1ccc(C(=O)n2cnc3ccccc32)cc1 | > 0.0378
Nc1cc(S(=O)(=O)N2CCCCC2)ccc1N1CCOCC1 | 0.0387 (≈ 119 µM)

SMILES | solubility kinetic [mg/mL]
CC1=NOC(=O)/C1=C/c1ccc(O)c(Br)c1 | 0.0324 (≈ 115 µM)
O=C(COc1ccc2ccc(=O)oc2c1)Nc1nccs1 | 0.0113 (≈ 37.4 µM)
C=CCC(=O)N1CCCC(C(=O)c2ccc(Cl)cc2)C1 (centres undefined) | 0.0425 (≈ 146 µM)
CCOC(=O)c1c(C)[nH]c(C(=O)OCC(=O)NCc2ccccc2)c1C | 0.0045 (≈ 12.6 µM)
N#CC(CCN1CCOCC1)(c1ccccc1)c1ccccc1 | 0.0431 (≈ 141 µM)
CCC(=O)N(Cc1cc(=O)[nH]c2ccccc12)c1ccc(C)cc1 | > 0.0481
O=C(OCC(=O)N1CCOCC1)c1ccc(Cl)c(S(=O)(=O)N2CCc3ccccc32)c1 | 0.0324 (≈ 69.7 µM)
S=C(c1ccc(-c2ccc(Br)cc2)o1)N1CCCCC1 | < 0.0008
CC(=O)NCCCc1nc2ccccc2n1Cc1ccccc1F | 0.0486 (≈ 149 µM)
Nc1nc(Cl)cc(-c2ccccc2)n1 | 0.0293 (≈ 142 µM)
Cl.O=C(c1cccc(S(=O)(=O)N2CCc3ccccc32)c1)N1CCN(CCO)CC1 | > 0.0678
Cc1cccn2cc(CCNC(=O)c3cccs3)nc12 | > 0.0428
Cn1c(=O)c(C=Nc2ccccc2)c(O)c2ccccc21 | 0.0112 (≈ 40.2 µM)
Nc1ccc(Nc2nc3ccccc3[nH]2)cc1 | 0.0258 (≈ 115 µM)
Cc1cccc(NC(=O)c2cc(=O)[nH]c3ccccc23)c1 | 0.0031 (≈ 11.1 µM)
CCN(C(=O)CN1C(=O)c2ccc([N+](=O)[O-])cc2C1=O)C1CCCCC1 | > 0.0539
Cc1ccc(CC2SC(N=C(N)N)=NC2=O)cc1 (centres undefined) | > 0.0393
Cc1oc(-c2ccc(Cl)cc2)cc1C(=O)NC1CCN(Cc2ccccc2)CC1 | 0.001 (≈ 2.45 µM)
Cc1cc(C)c(OCCN2CCOCC2)c(Cl)c1 | 0.0266 (≈ 98.6 µM)
CCOC(=O)C1CCN(S(=O)(=O)c2ccc3c4c(cccc24)C(=O)N3CC)CC1 | 0.0104 (≈ 25 µM)
O=C(O)CCN1c2cccc3cccc(c23)S1(=O)=O | > 0.0416
CCNc1ccc([N+](=O)[O-])cc1 | 0.0199 (≈ 120 µM)
CC(C)(C)C(=O)N(Cc1ccc(Cl)cc1)c1cnccn1 | > 0.0456
CCOc1ccc(-c2csc3nc[nH]c(=O)c23)cc1 | 0.0189 (≈ 69.4 µM)

SMILES | solubility kinetic [mg/mL]
O=C(O)c1cccc2c1C(=O)N(CC1CCCO1)C2 (centres undefined) | > 0.0392
O=C1NS(=O)c2cc([N+](=O)[O-])cc([N+](=O)[O-])c21 (centres undefined) | > 0.0386
COc1ccc(-c2c(C(F)(F)F)nn(C)c2NC(=O)c2ccco2)cc1 | > 0.0548
Brc1ccc(-c2csc(N3CCOCC3)n2)cc1 | < 0.0003
O=C(CCS(=O)(=O)c1ccccc1)Nc1nncs1 | > 0.0446
CN(C(=O)COC(=O)C1CCN(S(=O)(=O)c2ccc(Cl)cc2)CC1)C1CCS(=O)(=O)C1 (centres undefined) | 0.018 (≈ 36.5 µM)
CCCCn1c(SCC(N)=O)nc2sc3c(c2c1=O)CCC3 | 0.0019 (≈ 5.63 µM)
Cn1cc(C(=O)C(=O)NCCc2ccccc2)c2ccccc21 | 0.0006 (≈ 1.96 µM)
CCN(C(=O)CSc1nccc(=O)[nH]1)c1cccc2ccccc12 | > 0.0509
CC1CCN(C(=O)COC(=O)c2cc3ccccc3oc2=O)CC1 | > 0.0494
Cc1ccc(OCC(=O)N2CCN(S(C)(=O)=O)CC2)cc1 | > 0.0469
CC(=O)Nc1ccccc1OCC(=O)NCC(F)(F)F | 0.0432 (≈ 149 µM)
Cc1cc(C)nc(NC(=O)c2ccc(Br)s2)n1 | > 0.0468
O=C(Nc1ccc2c(c1)C(=O)OC2)c1ccccc1Cl | 0.041 (≈ 143 µM)
COc1ccc(S(=O)(=O)N2CCOCC2)cc1NC(=O)CN1CCCc2ccccc21 | 0.0029 (≈ 6.51 µM)
CCOc1ccc(NC(=O)c2ccc(Cl)c(NC(=O)c3ccco3)c2)cc1 | < 0.0004
CCOC(=O)c1nc2ccccc2c(C)c1C.Cl | 0.0253
O=C(Cc1ccccc1)Nc1ccc2c(c1)OC1(CCCC1)O2 | 0.0164 (≈ 53 µM)
CCOC(=O)Cn1cnc2scc(-c3ccc(C)c(C)c3)c2c1=O | 0.0225 (≈ 65.7 µM)
O=C(O)c1ccc(NC2CC(=O)N(Cc3ccccc3)C2=O)cc1 (centres undefined) | > 0.0487
CCOc1cccc2sc(Cl)nc12 | 0.0039 (≈ 18.3 µM)
C=CCON1C(=O)C(=O)N(OCC=C)[C@H]2CCCC[C@H]21 | > 0.042
NS(=O)(=O)c1ccc(NC(=O)CNC(=O)c2ccc3c(c2)OCO3)cc1 | 0.01 (≈ 26.5 µM)
CC(=O)N(CN1C(=O)C2C3C=CC(C3)C2C1=O)c1cccc(Cl)c1 (centres undefined) | 0.0504 (≈ 146 µM)

SMILES | solubility kinetic [mg/mL]
CSc1nc2ccc(NC(=O)c3cccs3)cc2s1 | 0.0027 (≈ 8.81 µM)
O=C(Nc1ccsc1C(=O)O)c1cccc(C(F)(F)F)c1 | > 0.0473
CNC(=O)c1c(NC(=O)c2ccco2)sc2c1CCC2 | 0.0033 (≈ 11.4 µM)
Cc1c(/C=N/NC(=O)c2ccc(Br)o2)cnn1C | > 0.0467
Cc1ccc2[nH]cc(S(=O)(=O)c3ccc(F)cc3)c(=O)c2c1 | 0.0055 (≈ 17.3 µM)
COc1cc(OC)cc(C(=O)NCCNC(=O)c2ccccn2)c1 | > 0.0494
O=C(/C=C/c1ccc(F)cc1)N1CCCc2ccccc21 | 0.0185 (≈ 65.8 µM)
CC(=O)Nc1ccc(NC(=O)COC(=O)c2ccc([N+](=O)[O-])o2)cc1 | > 0.0521
CCc1c(-c2ccccc2)[n+](=O)c2c(n1[O-])CCC2 | > 0.0384
Cc1c(C(=O)NC2=NCCS2)cccc1[N+](=O)[O-] | 0.0375 (≈ 141 µM)
Cn1ncc(Cl)c1C(=O)Nc1ccc(CN2CCCCC2)cc1 | > 0.0499
CCN(CC)C(=O)c1ccc(COc2ccc(Cl)c(C)c2)o1 | 0.0107 (≈ 33.3 µM)
COCCCNC(=S)Nc1ccc(N2CCCCC2)cc1 | > 0.0461
Cc1cc(C)n2ncc(C(=O)O)c2n1 | > 0.0287
Cc1ccc(Sc2c([N+](=O)[O-])c(=O)n(C)c3ccccc23)cc1 | < 0.0003
O=C(CCc1ccccc1)Nc1cccnc1 | > 0.0339
Cc1c(C(=O)N(C)C(C)c2ccncn2)oc2c(F)cccc12 (centres undefined) | > 0.047
O=Cc1c[nH]c2cccc(OCc3ccccc3)c12 | 0.0046 (≈ 18.3 µM)
Cc1ccc(-c2nnc(SCC(=O)NC3CCCC3)n2N)cc1 | > 0.0497
CS(=O)(=O)N(CC(=O)NCC1CCCO1)c1cccc(Cl)c1 (centres undefined) | > 0.052
CC(C)COc1ccc(Br)cc1CNC(C)(C)C.Cl | 0.0507
CNCCc1c[nH]c2ccc(O)cc12.O=C(O)C(=O)O | > 0.042
CCOc1ccccc1NC(=O)CN1C(=O)CSC(C)C1=O (centres undefined) | > 0.0484
